Experimental findings from paper PMC11345841, “Exploring 2-Sulfonylpyrimidine Warheads as Acrylamide Surrogates for Targeted Covalent Inhibition: A BTK Story” (Journal of Medicinal Chemistry, 2024) are described below.

Assay [1] has as its target T1, wild-type BTK (Homo sapiens, UniProt Q06187). The experiment in a line: BTK in vitro activity assay (ADP-Glo, poly-Glu:Tyr phosphorylation, TCEP). The conditions noted are these: for remaining activity at 0.1 µM: read-out: Remaining BTK activity (%); for inhibition at 0.1 µM: read-out: inhibition of BTK activity. In general terms: ADP-Glo turns the ADP formed in a reaction into a luminescent signal.

The target of assay [2] is T1, wild-type BTK. The experiment in a line: BTK in vitro activity assay in the presence of DTT vs TCEP (Figure S6). Format: biochemical. To be noted: 100 nM compound; 2 mM DTT instead of TCEP.
Protocol: Left: activity of WT BTK in the presence of DTT (2 mM) or TCEP (1 mM)
(mean±range of duplicate determinations). Right: effect of compounds on wild type BTK
activity in the presence of TCEP or DTT. Compounds (100 nM) were pre-incubated with BTK
in the presence of TCEP or DTT for 10 min before initiating the reaction by addition of ATP.
Graphs show relative BTK kinase activity (mean±range from 2-4 determinations) relative to
DMSO control (i.e. no compound, set to 100%).

T1 sequence (Q06187 whole entry): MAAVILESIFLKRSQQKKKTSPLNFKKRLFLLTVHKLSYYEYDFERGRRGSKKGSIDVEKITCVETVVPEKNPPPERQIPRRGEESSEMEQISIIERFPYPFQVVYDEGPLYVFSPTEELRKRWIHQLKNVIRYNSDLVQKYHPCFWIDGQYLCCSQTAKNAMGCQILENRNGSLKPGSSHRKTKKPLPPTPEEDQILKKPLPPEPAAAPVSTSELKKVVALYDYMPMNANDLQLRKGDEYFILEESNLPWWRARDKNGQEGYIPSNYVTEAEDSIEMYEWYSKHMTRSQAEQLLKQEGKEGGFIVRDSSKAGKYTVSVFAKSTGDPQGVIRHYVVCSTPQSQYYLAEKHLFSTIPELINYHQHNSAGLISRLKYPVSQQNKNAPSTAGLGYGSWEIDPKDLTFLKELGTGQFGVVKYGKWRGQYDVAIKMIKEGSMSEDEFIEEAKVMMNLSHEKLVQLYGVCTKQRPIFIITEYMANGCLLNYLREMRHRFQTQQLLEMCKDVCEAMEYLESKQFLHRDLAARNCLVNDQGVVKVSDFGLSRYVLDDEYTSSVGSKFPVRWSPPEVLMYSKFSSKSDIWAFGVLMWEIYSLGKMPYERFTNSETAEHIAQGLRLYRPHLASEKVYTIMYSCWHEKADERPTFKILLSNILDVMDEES

One may read the remaining activity as the signal under treatment as a percentage of the control signal. What is called inhibition is the drop in the measured response relative to a control, in per cent. For the molecule `CS(=O)(=O)c1nccc(C(=O)N2CCCC(n3nc(-c4ccc(Oc5ccccc5)cc4)c4c(N)ncnc43)C2)n1` (stereo in doubt) [Compound 5a, (R)-(3-(4-Amino-3-(4-phenoxyphenyl)-1H-pyrazolo[3,4-d]pyrimidin-1-yl)piperidin-1-yl)(2-(methylsulfonyl)pyrimidin-4-yl)methanone], at wild-type BTK [1], the remaining activity at 0.1 µM was determined as 17 ± 1% and the inhibition at 0.1 µM fell in the range of 80 to 90%. Take `CS(=O)(=O)c1ncc(Cl)c(C(=O)N2CCCC(n3nc(-c4ccc(Oc5ccccc5)cc4)c4c(N)ncnc43)C2)n1` (stereo in doubt) [Compound 5d, (R)-(3-(4-Amino-3-(4-phenoxyphenyl)-1H-pyrazolo[3,4-d]pyrimidin-1-yl)piperidin-1-yl)(5-chloro-2-(methylsulfonyl)pyrimidin-4-yl)methanone]: at wild-type BTK [2], the “BTK inhibition in the presence of DTT” value is “almost no inhibition”. Besides, at wild-type BTK [1], the remaining activity at 0.1 µM was 17 ± 2% and the inhibition at 0.1 µM was in the range of 80 to 90%.

For `CS(=O)(=O)c1ncc(C(=O)N2CCCC(n3nc(-c4ccc(Oc5ccccc5)cc4)c4c(N)ncnc43)C2)cn1` (stereo in doubt) [Compound 5e, (R)-(3-(4-Amino-3-(4-phenoxyphenyl)-1H-pyrazolo[3,4-d]pyrimidin-1-yl)piperidin-1-yl)(2-(methylsulfonyl)pyrimidin-5-yl)methanone], at wild-type BTK [1], the remaining activity at 0.1 µM turned out to be 9 ± 2% and the inhibition at 0.1 µM lay within 80 to 90%. Taken in the same sequence, the figures for `CCCCS(=O)(=O)c1ncc(C(=O)N2CCCC(n3nc(-c4ccc(Oc5ccccc5)cc4)c4c(N)ncnc43)C2)cn1` (stereo in doubt) [Compound 5f, (R)-(3-(4-Amino-3-(4-phenoxyphenyl)-1H-pyrazolo[3,4-d]pyrimidin-1-yl)piperidin-1-yl)(2-(butylsulfonyl)pyrimidin-5-yl)methanone] were 38 ± 2% and 40 to 60%.

With `Nc1ncnc2c1c(-c1ccc(Oc3ccccc3)cc1)nn2C1CCCN(C(=O)c2cnc(S(=O)(=O)c3ccccc3)nc2)C1` (stereo in doubt) [Compound 5g, (R)-(3-(4-Amino-3-(4-phenoxyphenyl)-1H-pyrazolo[3,4-d]pyrimidin-1-yl)piperidin-1-yl)(2-(phenylsulfonyl)pyrimidin-5-yl)methanone], on wild-type BTK [1], the remaining activity at 0.1 µM came to 35 ± 1% and the inhibition at 0.1 µM was in the range of 40 to 60%. As for `CSc1nccc(C(=O)N2CCC[C@@H](n3nc(-c4ccc(Oc5ccccc5)cc4)c4c(N)ncnc43)C2)n1` [Compound 4a, (R)-(3-(4-Amino-3-(4-phenoxyphenyl)-1H-pyrazolo[3,4-d]pyrimidin-1-yl)piperidin-1-yl)(2-(methylthio)pyrimidin-4-yl)methanone], the remaining activity at 0.1 µM on wild-type BTK [1] is 84 ± 8%.

With `CCCCSc1nccc(C(=O)N2CCC[C@@H](n3nc(-c4ccc(Oc5ccccc5)cc4)c4c(N)ncnc43)C2)n1` [Compound 4b, (R)-(3-(4-Amino-3-(4-phenoxyphenyl)-1H-pyrazolo[3,4-d]pyrimidin-1-yl)piperidin-1-yl)(2-(butylthio)pyrimidin-4-yl)methanone], the remaining activity at 0.1 µM on wild-type BTK [1] stood at 82 ± 1%. `Nc1ncnc2c1c(-c1ccc(Oc3ccccc3)cc1)nn2[C@@H]1CCCN(C(=O)c2ccnc(Sc3ccccc3)n2)C1` [Compound 4c, (R)-(3-(4-Amino-3-(4-phenoxyphenyl)-1H-pyrazolo[3,4-d]pyrimidin-1-yl)piperidin-1-yl)(2-(phenylthio)pyrimidin-4-yl)methanone]: the remaining activity at 0.1 µM on wild-type BTK [1] was determined as 98 ± 5%. Same read-out and setting: the same measure for `CSc1ncc(Cl)c(C(=O)N2CCC[C@@H](n3nc(-c4ccc(Oc5ccccc5)cc4)c4c(N)ncnc43)C2)n1` [Compound 4d, (R)-(3-(4-Amino-3-(4-phenoxyphenyl)-1H-pyrazolo[3,4-d]pyrimidin-1-yl)piperidin-1-yl)(5-chloro-2-(methylthio)pyrimidin-4-yl)methanone]: 100 ± 6%.

With `CSc1ncc(C(=O)N2CCC[C@@H](n3nc(-c4ccc(Oc5ccccc5)cc4)c4c(N)ncnc43)C2)cn1` [Compound 4e, (R)-(3-(4-Amino-3-(4-phenoxyphenyl)-1H-pyrazolo[3,4-d]pyrimidin-1-yl)piperidin-1-yl)(2-(methylthio)pyrimidin-5-yl)methanone], on wild-type BTK [1], the remaining activity at 0.1 µM came to 83 ± 9%. Consider `CCCCSc1ncc(C(=O)N2CCC[C@@H](n3nc(-c4ccc(Oc5ccccc5)cc4)c4c(N)ncnc43)C2)cn1` [Compound 4f, (R)-(3-(4-Amino-3-(4-phenoxyphenyl)-1H-pyrazolo[3,4-d]pyrimidin-1-yl)piperidin-1-yl)(2-(butylthio)pyrimidin-5-yl)methanone], for which the remaining activity at 0.1 µM at wild-type BTK [1] was 84 ± 5%. In the case of `Nc1ncnc2c1c(-c1ccc(Oc3ccccc3)cc1)nn2[C@@H]1CCCN(C(=O)c2cnc(Sc3ccccc3)nc2)C1` [Compound 4g, (R)-(3-(4-Amino-3-(4-phenoxyphenyl)-1H-pyrazolo[3,4-d]pyrimidin-1-yl)piperidin-1-yl)(2-(phenylthio)pyrimidin-5-yl)methanone], the remaining activity at 0.1 µM on wild-type BTK [1] was found to be 100 ± 6%. As for `CCCCS(=O)(=O)c1nccc(C(=O)N2CCC[C@H](n3nc(-c4ccc(Oc5ccccc5)cc4)c4c(N)ncnc43)C2)n1` [Compound 5b, (3-(4-Amino-3-(4-phenoxyphenyl)-1H-pyrazolo[3,4-d]pyrimidin-1-yl)piperidin-1-yl)(2-(butylsulfonyl)pyrimidin-4-yl)methanone], on wild-type BTK [1], the remaining activity at 0.1 µM amounted to 58 ± 3% and the inhibition at 0.1 µM lay within 40 to 60%. For `Nc1ncnc2c1c(-c1ccc(Oc3ccccc3)cc1)nn2[C@H]1CCCN(C(=O)c2ccnc(S(=O)(=O)c3ccccc3)n2)C1` [Compound 5c, (3-(4-Amino-3-(4-phenoxyphenyl)-1H-pyrazolo[3,4-d]pyrimidin-1-yl)piperidin-1-yl)(2-(phenylsulfonyl)pyrimidin-4-yl)methanone] the same measures were 40 ± 1% and 40 to 60%. Regarding `CSc1ncc(C)c(N2CCCC(n3nc(-c4ccc(Oc5ccccc5)cc4)c4c(N)ncnc43)C2)n1` (stereo not drawn) [Compound 7a, 1-(1-(5-Methyl-2-(methylthio)pyrimidin-4-yl)piperidin-3-yl)-3-(4-phenoxyphenyl)-1H-pyrazolo[3,4-d]pyrimidin-4-amine], the remaining activity at 0.1 µM at wild-type BTK [1] worked out at 40 ± 0.3%. On the same count and under the same terms, in the case of `COC(=O)c1cnc(SC)nc1N1CCC[C@@H](n2nc(-c3ccc(Oc4ccccc4)cc3)c3c(N)ncnc32)C1` [Compound 7b, Methyl (R)-4-(3-(4-Amino-3-(4-phenoxyphenyl)-1H-pyrazolo[3,4-d]pyrimidin-1-yl)piperidin-1-yl)-2-(methylthio)pyrimidine-5-carboxylate] it was 76 ± 2%.

Consider `CCOC(=O)c1cnc(SC)nc1N1CCC[C@@H](n2nc(-c3ccc(Oc4ccccc4)cc3)c3c(N)ncnc32)C1` [Compound 7c, Ethyl (R)-4-(3-(4-Amino-3-(4-phenoxyphenyl)-1H-pyrazolo[3,4-d]pyrimidin-1-yl)piperidin-1-yl)-2-(methylthio)pyrimidine-5-carboxylate], for which, on wild-type BTK [1], the remaining activity at 0.1 µM stood at 105 ± 4%. Still for that read-out and setting: the same measure for `CNC(=O)c1cnc(SC)nc1N1CCCC(n2nc(-c3ccc(Oc4ccccc4)cc3)c3c(N)ncnc32)C1` (stereo not drawn) [Compound 7d, 4-(3-(4-Amino-3-(4-phenoxyphenyl)-1H-pyrazolo[3,4-d]pyrimidin-1-yl)piperidin-1-yl)-N-methyl-2-(methylthio)pyrimidine-5-carboxamide]: 78 ± 2%. On to `CSc1ncc(N2CCCC(n3nc(-c4ccc(Oc5ccccc5)cc4)c4c(N)ncnc43)C2)c(C)n1` (stereo not drawn) [Compound 7e, 1-(1-(4-Methyl-2-(methylthio)pyrimidin-5-yl)piperidin-3-yl)-3-(4-phenoxyphenyl)-1H-pyrazolo[3,4-d]pyrimidin-4-amine], for which the remaining activity at 0.1 µM at wild-type BTK [1] was found to be 69 ± 2%.

For the molecule `CS(=O)(=O)c1nccc(N2CCC[C@@H](n3nc(-c4ccc(Oc5ccccc5)cc4)c4c(N)ncnc43)C2)n1` [Compound 8e, (R)-1-(1-(2-(Methylsulfonyl)pyrimidin-4-yl)piperidin-3-yl)-3-(4-phenoxyphenyl)-1H-pyrazolo[3,4-d]pyrimidin-4-amine], the remaining activity at 0.1 µM on wild-type BTK [1] is 48 ± 0.3%. Consider `Cc1nc(S(C)(=O)=O)ncc1N1CCCC(n2nc(-c3ccc(Oc4ccccc4)cc3)c3c(N)ncnc32)C1` (stereo not drawn) [Compound 9a, 1-(1-(4-Methyl-2-(methylsulfonyl)pyrimidin-5-yl)piperidin-3-yl)-3-(4-phenoxyphenyl)-1H-pyrazolo[3,4-d]pyrimidin-4-amine], for which, at wild-type BTK [1], the remaining activity at 0.1 µM came to 80 ± 3%. As to `CS(=O)(=O)c1ncc(N2CCC[C@@H](n3nc(-c4ccc(Oc5ccccc5)cc4)c4c(N)ncnc43)C2)cn1` [Compound 9b, (R)-1-(1-(2-(Methylsulfonyl)pyrimidin-5-yl)piperidin-3-yl)-3-(4-phenoxyphenyl)-1H-pyrazolo[3,4-d]pyrimidin-4-amine], at wild-type BTK [1], the remaining activity at 0.1 µM was 103 ± 5%. Same read-out and setting: in the case of `Nc1ncnc2c1c(-c1ccc(Oc3ccccc3)cc1)nn2[C@@H]1CCCN(C(=O)c2ccccc2)C1` [Compound 10, (R)-(3-(4-Amino-3-(4-phenoxyphenyl)-1H-pyrazolo[3,4-d]pyrimidin-1-yl)piperidin-1-yl)(phenyl)methanone] it was 100 ± 0.2%. On the same count and under the same terms, the same measure for `Nc1ncnc2c1c(-c1ccc(Oc3ccccc3)cc1)nn2[C@@H]1CCCN(C(=O)c2ccncn2)C1` [Compound 12a, (R)-(3-(4-Amino-3-(4-phenoxyphenyl)-1H-pyrazolo[3,4-d]pyrimidin-1-yl)piperidin-1-yl)(pyrimidin-4-yl)methanone]: 53 ± 2%; for `Nc1ncnc2c1c(-c1ccc(Oc3ccccc3)cc1)nn2[C@@H]1CCCN(C(=O)c2cncnc2)C1` [Compound 12b, (R)-(3-(4-Amino-3-(4-phenoxyphenyl)-1H-pyrazolo[3,4-d]pyrimidin-1-yl)piperidin-1-yl)(pyrimidin-5-yl)methanone]: 83 ± 7%.
